Test results published in the supplement of paper PMC10627819.

Key:
B. subtilis 168 [1] = assay: fitness (endpoint OD595 vs no drug) (fraction); higher = more growth
Outline: (§1)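 Plates with 384 wells were inoculated at OD595 0.01 using 30 µl of TSB, LB Lennox or CY, or 55 µl for S. pneumoniae. Incubation was at 37 °C, with OD595 measured every 30 min for 14 h. Fitness is the stationary-phase transition optical density over the robust mean of no-drug control wells, after first-reading background subtraction; it is capped at 1.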

S. pneumoniae D39V [2] = assay: as above
Outline: as §1

S. aureus Newman [3] = assay: as above
Outline: as §1

S. aureus DSM 20231 [4] = assay: as above
Outline: as §1

B. subtilis 168 [5] = assay: Bliss interaction score (quartile over a dose matrix) (fitness difference); higher = more antagonism (negative = synergy)
Outline: (§2)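 The Bliss score takes observed fitness and subtracts the expected fitness, calculated as a product of single-drug fitness values. Those single-drug values were inferred from the combination data. Fitness is OD595 at entry into stationary phase divided by the plate's robust no-drug mean, capped at 1, and the score is summarised by quartiles across technical, biological and donor/recipient replicates.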

S. pneumoniae D39V [6] = assay: as above
Outline: as §2

S. aureus Newman [7] = assay: as above
Outline: as §2

S. aureus DSM 20231 [8] = assay: as above
Outline: as §2
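Wherever Bliss interaction score (quartile over a dose matrix) is given: first quartile when negative (synergy) and third quartile when positive (antagonism).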

COc1cccc2c1C(=O)c1c(O)c3c(c(O)c1C2=O)C[C@@](O)(C(=O)CO)C[C@@H]3O[C@H]1C[C@H](N)[C@H](O)[C@H](C)O1 [Doxorubicin] + COc1ccc(C[C@H](N)C(=O)N[C@H]2[C@@H](O)[C@H](n3cnc4c(N(C)C)ncnc43)O[C@@H]2CO)cc1 [Puromycin]
fitness
Settings	first compound 0.25 µg/mL	first compound 0.5 µg/mL	first compound 0.625 µg/mL	first compound 1 µg/mL	first compound 1.25 µg/mL	first compound 2.5 µg/mL
B. subtilis 168 [1], partner 0.39 µg/mL	–	–	0.918	–	0.879	0.558
B. subtilis 168 [1], partner 0.78 µg/mL	–	–	0.987	–	0.925	0.45
B. subtilis 168 [1], partner 1.56 µg/mL	–	–	0.925	–	0.89	0.336
S. aureus DSM 20231 [4], partner 0.39 µg/mL	–	–	0.912	–	0.869	0.803
S. aureus DSM 20231 [4], partner 0.78 µg/mL	–	–	0.889	–	0.954	0.783
S. aureus DSM 20231 [4], partner 1.56 µg/mL	–	–	0.874	–	0.858	0.733
S. aureus Newman [3], partner 0.39 µg/mL	–	–	0.84	–	0.763	0.699
S. aureus Newman [3], partner 0.78 µg/mL	–	–	0.801	–	0.767	0.68
S. aureus Newman [3], partner 1.56 µg/mL	–	–	0.84	–	0.725	0.678
S. pneumoniae D39V [2], partner 1 µg/mL	0.998	≥ 1	–	0.882	–	–
S. pneumoniae D39V [2], partner 2 µg/mL	0.926	0.914	–	0.874	–	–
S. pneumoniae D39V [2], partner 4 µg/mL	0.54	0.567	–	0.399	–	–

fitness, S. aureus DSM 20231 [4], one replicate
Settings	first compound 0.625 µg/mL	first compound 1.25 µg/mL	first compound 2.5 µg/mL
partner 3.12 µg/mL	0.91	0.821	0.776
partner 6.24 µg/mL	0.801	0.679	0.59

Settings	Bliss interaction score
B. subtilis 168 [5]	-0.059
S. aureus DSM 20231 [8]	-0.0672
S. aureus Newman [7]	-0.0786
S. pneumoniae D39V [6]	0.0661

COc1cccc2c1C(=O)c1c(O)c3c(c(O)c1C2=O)C[C@@](O)(C(=O)CO)C[C@@H]3O[C@H]1C[C@H](N)[C@H](O)[C@H](C)O1 [Doxorubicin] + C[C@@H]1O[C@@H]1P(=O)(O)O [Fosfomycin]
Settings	fitness
B. subtilis 168 [1], first compound 0.625 µg/mL, partner 1.562 µg/mL	0.7
B. subtilis 168 [1], first compound 0.625 µg/mL, partner 3.124 µg/mL	0.605
B. subtilis 168 [1], first compound 0.625 µg/mL, partner 6.248 µg/mL	0.412
B. subtilis 168 [1], first compound 1.25 µg/mL, partner 1.562 µg/mL	0.655
B. subtilis 168 [1], first compound 1.25 µg/mL, partner 3.124 µg/mL	0.518
B. subtilis 168 [1], first compound 1.25 µg/mL, partner 6.248 µg/mL	0.302
B. subtilis 168 [1], first compound 2.5 µg/mL, partner 1.562 µg/mL	0.369
B. subtilis 168 [1], first compound 2.5 µg/mL, partner 6.248 µg/mL	0.0432
S. aureus DSM 20231 [4], first compound 0.625 µg/mL, partner 0.781 µg/mL	0.685
S. aureus DSM 20231 [4], first compound 0.625 µg/mL, partner 1.562 µg/mL	0.587
S. aureus DSM 20231 [4], first compound 0.625 µg/mL, partner 3.124 µg/mL	0.5
S. aureus DSM 20231 [4], first compound 1.25 µg/mL, partner 0.781 µg/mL	0.681
S. aureus DSM 20231 [4], first compound 1.25 µg/mL, partner 1.562 µg/mL	0.603
S. aureus DSM 20231 [4], first compound 1.25 µg/mL, partner 3.124 µg/mL	0.493
S. aureus DSM 20231 [4], first compound 2.5 µg/mL, partner 0.781 µg/mL	0.637
S. aureus DSM 20231 [4], first compound 2.5 µg/mL, partner 1.562 µg/mL	0.506
S. aureus DSM 20231 [4], first compound 2.5 µg/mL, partner 3.124 µg/mL	0.449
S. aureus Newman [3], first compound 0.625 µg/mL, partner 0.781 µg/mL	0.615
S. aureus Newman [3], first compound 0.625 µg/mL, partner 1.562 µg/mL	0.547
S. aureus Newman [3], first compound 0.625 µg/mL, partner 3.124 µg/mL	0.212
S. aureus Newman [3], first compound 1.25 µg/mL, partner 0.781 µg/mL	0.618
S. aureus Newman [3], first compound 1.25 µg/mL, partner 1.562 µg/mL	0.535
S. aureus Newman [3], first compound 1.25 µg/mL, partner 3.124 µg/mL	0.138
S. aureus Newman [3], first compound 2.5 µg/mL, partner 0.781 µg/mL	0.595
S. aureus Newman [3], first compound 2.5 µg/mL, partner 1.562 µg/mL	0.443
S. aureus Newman [3], first compound 2.5 µg/mL, partner 3.124 µg/mL	0.0485
S. pneumoniae D39V [2], first compound 0.25 µg/mL, partner 1.25 µg/mL	0.881
S. pneumoniae D39V [2], first compound 0.25 µg/mL, partner 2.5 µg/mL	0.852
S. pneumoniae D39V [2], first compound 0.25 µg/mL, partner 5 µg/mL	0.635
S. pneumoniae D39V [2], first compound 0.5 µg/mL, partner 1.25 µg/mL	0.938
S. pneumoniae D39V [2], first compound 0.5 µg/mL, partner 2.5 µg/mL	0.859
S. pneumoniae D39V [2], first compound 0.5 µg/mL, partner 5 µg/mL	0.646
S. pneumoniae D39V [2], first compound 1 µg/mL, partner 1.25 µg/mL	0.861
S. pneumoniae D39V [2], first compound 1 µg/mL, partner 2.5 µg/mL	0.823
S. pneumoniae D39V [2], first compound 1 µg/mL, partner 5 µg/mL	0.669

Settings	Bliss interaction score
B. subtilis 168 [5]	-0.142
S. aureus DSM 20231 [8]	0.0338
S. aureus Newman [7]	0.122
S. pneumoniae D39V [6]	-0.0488

COc1cccc2c1C(=O)c1c(O)c3c(c(O)c1C2=O)C[C@@](O)(C(=O)CO)C[C@@H]3O[C@H]1C[C@H](N)[C@H](O)[C@H](C)O1 [Doxorubicin] + C[n+]1ccc(-c2cc[n+](C)cc2)cc1 [Paraquat]
fitness
Settings	first compound 0.25 µg/mL	first compound 0.5 µg/mL	first compound 0.625 µg/mL	first compound 1 µg/mL	first compound 1.25 µg/mL	first compound 2.5 µg/mL
B. subtilis 168 [1], partner 1.25 µg/mL	–	–	≥ 1	–	0.892	0.686
B. subtilis 168 [1], partner 2.5 µg/mL	–	–	0.924	–	0.861	0.656
B. subtilis 168 [1], partner 5 µg/mL	–	–	0.862	–	0.876	0.595
S. aureus DSM 20231 [4], partner 1.25 µg/mL	–	–	0.858	–	0.882	0.782
S. aureus DSM 20231 [4], partner 2.5 µg/mL	–	–	0.828	–	0.835	0.761
S. aureus DSM 20231 [4], partner 5 µg/mL	–	–	0.823	–	0.8	0.744
S. aureus Newman [3], partner 1.25 µg/mL	–	–	0.712	–	0.742	0.732
S. aureus Newman [3], partner 2.5 µg/mL	–	–	0.715	–	0.792	0.759
S. aureus Newman [3], partner 5 µg/mL	–	–	0.744	–	0.743	0.761
S. pneumoniae D39V [2], partner 1.5 µg/mL	0.98	0.992	–	0.9	–	–
S. pneumoniae D39V [2], partner 3 µg/mL	0.936	0.979	–	0.886	–	–
S. pneumoniae D39V [2], partner 6 µg/mL	0.916	0.946	–	0.872	–	–

Settings	Bliss interaction score
B. subtilis 168 [5]	0.105
S. aureus DSM 20231 [8]	-0.0686
S. aureus Newman [7]	-0.052
S. pneumoniae D39V [6]	0.0503

COc1cccc2c1C(=O)c1c(O)c3c(c(O)c1C2=O)C[C@@](O)(C(=O)CO)C[C@@H]3O[C@H]1C[C@H](N)[C@H](O)[C@H](C)O1 [Doxorubicin] + Cc1cc(NS(=O)(=O)c2ccc(N)cc2)no1 [Sulfamethoxazol]
fitness, one replicate
Settings	first compound 0.625 µg/mL	first compound 1.25 µg/mL	first compound 2.5 µg/mL
B. subtilis 168 [1], partner 0.5 µg/mL	0.938	0.883	0.969
S. aureus Newman [3], partner 8 µg/mL	0.887	0.877	0.875

fitness
Settings	first compound 0.25 µg/mL	first compound 0.5 µg/mL	first compound 0.625 µg/mL	first compound 1 µg/mL	first compound 1.25 µg/mL	first compound 2.5 µg/mL
B. subtilis 168 [1], partner 1 µg/mL	–	–	0.929	–	0.885	0.723
B. subtilis 168 [1], partner 2 µg/mL	–	–	0.878	–	0.865	0.665
B. subtilis 168 [1], partner 4 µg/mL	–	–	≥ 1	–	0.893	0.695
S. aureus DSM 20231 [4], partner 1 µg/mL	–	–	0.831	–	0.791	0.737
S. aureus DSM 20231 [4], partner 2 µg/mL	–	–	0.83	–	0.911	0.869
S. aureus DSM 20231 [4], partner 4 µg/mL	–	–	0.812	–	0.874	0.845
S. aureus Newman [3], partner 1 µg/mL	–	–	0.852	–	0.816	0.758
S. aureus Newman [3], partner 2 µg/mL	–	–	0.856	–	0.802	0.765
S. aureus Newman [3], partner 4 µg/mL	–	–	0.854	–	0.835	0.787
S. pneumoniae D39V [2], partner 1 µg/mL	0.943	0.93	–	0.904	–	–
S. pneumoniae D39V [2], partner 2 µg/mL	0.949	0.97	–	0.936	–	–
S. pneumoniae D39V [2], partner 4 µg/mL	0.965	0.954	–	0.92	–	–

Settings	Bliss interaction score
B. subtilis 168 [5]	0.0735
S. aureus DSM 20231 [8]	-0.0832
S. aureus Newman [7]	-0.0666
S. pneumoniae D39V [6]	0.0685

COc1cccc2c1C(=O)c1c(O)c3c(c(O)c1C2=O)C[C@@](O)(C(=O)CO)C[C@@H]3O[C@H]1C[C@H](N)[C@H](O)[C@H](C)O1 [Doxorubicin] + Cc1ncc([N+](=O)[O-])n1CCO [Metronidazole]
fitness
Settings	first compound 0.25 µg/mL	first compound 0.5 µg/mL	first compound 0.625 µg/mL	first compound 1 µg/mL	first compound 1.25 µg/mL	first compound 2.5 µg/mL
B. subtilis 168 [1], partner 0.625 µg/mL	–	–	≥ 1	–	0.964	0.74
B. subtilis 168 [1], partner 1.25 µg/mL	–	–	0.941	–	0.929	0.699
B. subtilis 168 [1], partner 2.5 µg/mL	–	–	0.937	–	0.956	0.653
S. aureus DSM 20231 [4], partner 0.625 µg/mL	–	–	0.899	–	0.874	0.791
S. aureus DSM 20231 [4], partner 1.25 µg/mL	–	–	0.972	–	0.974	0.84
S. aureus DSM 20231 [4], partner 2.5 µg/mL	–	–	0.994	–	0.965	0.897
S. aureus Newman [3], partner 0.625 µg/mL	–	–	0.843	–	0.774	0.753
S. aureus Newman [3], partner 0.781 µg/mL	–	–	0.761	–	0.765	0.75
S. aureus Newman [3], partner 1.25 µg/mL	–	–	0.881	–	0.807	0.795
S. aureus Newman [3], partner 1.562 µg/mL	–	–	0.76	–	0.793	0.751
S. aureus Newman [3], partner 2.5 µg/mL	–	–	0.853	–	0.793	0.732
S. aureus Newman [3], partner 3.124 µg/mL	–	–	0.76	–	0.806	0.76
S. pneumoniae D39V [2], partner 1.073 µg/mL	0.827	0.954	–	0.895	–	–
S. pneumoniae D39V [2], partner 1.25 µg/mL	0.993	≥ 1	–	0.969	–	–
S. pneumoniae D39V [2], partner 2.145 µg/mL	0.79	0.895	–	0.907	–	–
S. pneumoniae D39V [2], partner 2.5 µg/mL	≥ 1	≥ 1	–	0.981	–	–
S. pneumoniae D39V [2], partner 4.29 µg/mL	0.809	0.869	–	0.843	–	–
S. pneumoniae D39V [2], partner 5 µg/mL	0.993	0.996	–	0.944	–	–

Settings	Bliss interaction score
B. subtilis 168 [5]	0.0987
S. aureus DSM 20231 [8]	0.0515
S. aureus Newman [7]	-0.0468
S. pneumoniae D39V [6]	0.0624
